Results reported in patent US8778882B2, “Agent for strengthening calcium containing tissue and use thereof” (Hayashibara Co., Ltd., priority 2002, dated 2014).

How the values were obtained:
[1] = tested on: mouse pre-osteoblastic cell MC3T3-E1; assay: Alkaline phosphatase activity in mouse pre-osteoblastic cells; type: cell-based; settings: for activity at 20 µM: Mus musculus; for alkaline phosphatase activity in vitro: glycosides
Method: To increase number of osteoblastic cells having calcium-deposition activity is important for increasing bone mass. […] The activity is at low level in pre-osteoblastic cells and at high level in osteoblastic cells differentiated form the pre-osteoblastic cells. […] Since final ethanol concentration in the medium is 0.2% (v/v), α-MEM medium containing 0.2% (v/v) ethanol was prepared as a negative control. The cells were inoculated for eight days as changing the medium therewith to fresh medium with or without each sample per three days. Alkaline phosphatase activity was measured using “Alkaline Phospha B-Test Wako” (commercialized by Wako Pure Chemical Industries, Osaka, Japan) according with Kajii et al (Archives of Oral Biology, Vol. 44, pp. 233-241, (1999)). Briefly, to the above described mouse pre-osteoblastic cells washed with 1 ml of 0.25 M sucrose solution three times after removing the medium were added 0.45 ml of 50 mM carbonate salt buffer (pH9.8) containing 1 mM magnesium chloride and 50 mM sucrose and 0.05 ml of 3.4 mM disodium p-nitrophenyl phosphate in due course. The mixture was incubated at 25° C. for five minutes and admixed with 1.5 ml of 0.6N sodium hydroxide as a reaction terminator. Absorbance 405 nm of p-nitrophenol generated by alkaline phosphatase in the resulting mixture was measured, and the obtained values were used as values as alkaline phosphatase activity. […] The experiment was performed by the method according to Experiment 1 except that culture day in the medium containing each sample was three, six or nine, and concentration of each sample was 5, 10 or 20 μM. […] As a negative control, mediums containing ethanol in the above concentration were prepared for calculating relative activity to the activity of each control.

[2] = tested on: mouse pre-osteoblastic cell MC3T3-E1; assay: Calcium deposition amount by Calcium C Test Wako; type: cell-based; settings: for activity at 20 µM: Mus musculus, MC3T3-E1; for activity at 20 µM / Relative Calcium Deposition Amount (%): flavonoid comparison, Calcium C Test Wako, relative to 0.2% (v/v) ethanol negative control; for calcium deposition in vitro: glycosides
Description: Other flavonoid compounds than kaempferol or hesperetin were investigated where they have the same effect or not. Flavone (commercialized by Kanto Kagaku, Tokyo, Japan), apigenin (commercialized by Funakoshi, Co., Ltd., Tokyo, Japan), flavonol (commercialized by Tokyo Kasei Kogyo, Co., Ltd., Tokyo, Japan), quercetin (commercialized by Kanto Kagaku, Tokyo, Japan), kaempferol (commercialized by Funakoshi, Co., Ltd., Tokyo, Japan), rutin (commercialized by Kanto Kagaku, Tokyo, Japan), flavanone (commercialized by Kanto Kagaku, Tokyo, Japan), naringenin (commercialized by Ardrich Corporation), hesperetin (commercialized by Funakoshi, Co., Ltd., Tokyo, Japan), hesperidin (commercialized by Kanto Kagaku, Tokyo, Japan), chalcone (commercialized by Merk Corporation), fuloretin (commercialized by Sigma Corporation), catechin (commercialized by Sigma Corporation), ipriflavone (commercialized by Daito Corporation, Toyama, Japan), taxifolin (commercialized by Funakoshi, Co., Ltd., Tokyo, Japan), sulfuretin (commercialized by Funakoshi, Co., Ltd.; Tokyo, Japan), or cyanidin (commercialized by Funakoshi, Co., Ltd., Tokyo, Japan) was selected as test samples. Alkaline phosphatase activity was measured by the method of Experiment 1. Calcium deposition was measured by usual method using “Calcium C Test Wako” (commercialized by Wako Pure Chemical Industries, Osaka, Japan), briefly, cultured cells were washed with 1 ml of Dulbecco phosphate buffer saline three times after removing the medium. To the resultant was added 0.5 ml of 2N hydrochloric acid to resolve deposited calcium. To 5 μl of the resultant solution were added 0.5 ml of 0.88M monoethanolamine buffer (pH11) and 0.05 ml of 0.63 mM o-cresolphthalein complexone solution (binding to calcium ion to form chelate complex) containing 69 mM 8-quinolinol and mixed. Calcium amount per one hole of the plate was calculated by measuring absorbance 570 nm of the resultants and standardizing with a standard calcium solution. The judgement of alkaline phosphatase activity or calcium deposition amount of each sample was to calculate the relative activity or the relative calcium deposition amount to the negative control (only medium containing 0.2% (v/v) ethanol) and to compare each other.
The enhancement of calcium deposition between kaempferol and ipripfavone were compared. Test samples and their adding manner were same as Experiment 4. Calcium deposition amount was measured by usual method using “Calcium C Test Wako” (commercialized by Wako Pure Chemical Industries, Osaka, Japan); briefly, cultured cells were washed with 1 ml of Dulbecco phosphate buffer saline three times after removing the medium. To the resultant was added 0.5 ml of 2N hydrochloric acid to resolve deposited calcium. To 5 μl of the resolving solution were added 0.5 ml of 0.88M monoethanolamine buffer (pH11) and 0.05 ml of 0.63 mM o-cresolphthalein complexone solution (binding to calcium ion to form chelate complex) containing 69 mM 8-quinolinol and mixed, Calcium amount per one hole of the plate was calculated by measuring absorbance 570 nm of the resultants and standardizing with a standard calcium solution.
Kaempferol or hesperetin in combination with ipriflavone, or a kind of isoflavones, was investigated whether to enhance calcium deposition or not. Methods for preparing samples and culturing the cells were the same method described in Experiment 1 except culturing the cells for five days, Method for measuring calcium was the same method described in Experiment 3 and 5. Final ethanol concentration of the medium containing each sample was adjusted as same concentration.

Rat Femur and Tibia = assay: Enhancing calcium deposition in rat femur and tibia; type: in vivo; settings: for calcium deposition in femur and tibia: rats, eight weeks feeding; for Calcium Content Per One Dried Bone / Dried Bone Mass: rats fed sample in high sucrose feeding stuff for eight weeks
Method: The experiment was performed using six three-weeks-aged female Wister rats per one group. The rats were fed with high sucrose feeding stuff containing ingredients listed Table 11 (In the Table, each value means “weight %”.) and one part by weight of each test sample; hesperetin (commercialized by Funakoshi, Co., Ltd., Tokyo, Japan), quercetin (commercialized by Tokyo Kasei Kogyo, Co., Ltd., Tokyo, Japan), α-glycosyl hesperidin (product name “αG HESPERIDINE”, commercialized by Hayashibara Shoji Inc., Okayama, Japan), α-glycosyl rutin (product name “αG RUTIN P”, commercialized by Hayashibara Shoji Inc., Okayama, Japan), or ipriflavone (commercialized by Daito Corporation, Toyama, Japan) (positive control). As a negative control, rats fed with feedstuff containing one part by weight of sucrose replacing test sample were prepared. The rats were allowed to freely take water. The rats were killed after eight weeks, and then, their femurs and tibias were excised. Each femur or tibia dried at 100° C. for about six hours was measured by electric even balance for high precision analysis (product name “HA180M/12QM”, commercialized by A & D Co, Ltd., Tokyo, Japan), and then, each bone was placed into a crucible and burned in an incinerator at 950° C. for six hours. The cinerary resultant was resolved in hydrochloric solution and provided for measuring calcium amount by atomic absorption photometer. Calcium amount per one dried bone was calculated and compared each other.

[3] = MC3T3-E1, 20 mM each compound (so in the source), eight days, relative to 0.2% (v/v) ethanol negative control
[4] = MC3T3-E1, flavonoid comparison, method of Experiment 1, relative to 0.2% (v/v) ethanol negative control
[5] = 192 h, MC3T3-E1, 20 mM each compound (so in the source), eight days, relative to 0.2% (v/v) ethanol negative control
[6] = flavonoid comparison, method of Experiment 1, relative to 0.2% (v/v) ethanol negative control

Cc1cc(=O)oc2cc(O)ccc12 [4-Methylumbelliferone] was tested, and the “Relative Alkaline Phosphatase Activity (%)” value [1, 3] was 96%.

O=c1cc(-c2ccc(O)cc2)oc2cc(O)cc(O)c12 [Apigenin] showed an activity at 20 µM [1, 4] of 128% and an activity at 20 µM [2] of 247%.

In the case of Cn1c(=O)c2c(ncn2C)n(C)c1=O [Caffein, caffein], the activity at 20 µM [1, 5] is reported as 100%.

In the case of O.Oc1cc(O)c2c(c1)O[C@H](c1ccc(O)c(O)c1)[C@@H](O)C2 [Catechin], the “Relative Alkaline Phosphatase Activity (%)” value [1, 6] is reported as 118% and the “Relative Calcium Deposition Amount (%)” value [2] is reported as 247%.

Compound O=C(/C=C/c1ccccc1)c1ccccc1 [Chalcone] has an activity at 20 µM [1, 4] of 105% and an activity at 20 µM [2] of 104%.

In the case of Oc1cc(O)c2cc(O)c(-c3ccc(O)c(O)c3)[o+]c2c1 [Cyanidin], the “Relative Alkaline Phosphatase Activity (%)” value [1, 6] is reported as 115% and the “Relative Calcium Deposition Amount (%)” value [2] is reported as 216%.

Compound O=C1CC(c2ccccc2)Oc2ccccc21 (stereo not drawn) [Flavanone] has an activity at 20 µM [1, 4] of 109% and an activity at 20 µM [2] of 311%.

Compound O=c1cc(-c2ccccc2)oc2ccccc12 [Flavone] has an activity at 20 µM [1, 4] of 103% and an activity at 20 µM [2] of 158%.

Work on O=c1c(O)c(-c2ccccc2)oc2ccccc12 [Flavonol] yielded an activity at 20 µM [1, 4] of 139% and an activity at 20 µM [2] of 295%.

With CC1(C)[C@@H](O[C@H]2O[C@H](C(=O)O)[C@@H](O)[C@H](O)[C@H]2O[C@@H]2O[C@H](C(=O)O)[C@@H](O)[C@H](O)[C@H]2O)CC[C@]2(C)[C@H]3C(=O)C=C4[C@@H]5C[C@@](C)(C(=O)O)CC[C@]5(C)CC[C@@]4(C)[C@]3(C)CC[C@@H]12 [Glycyrrizinic Acid] the “Relative Alkaline Phosphatase Activity (%)” value [1, 3] was 97%.

With COc1ccc([C@@H]2CC(=O)c3c(O)cc(O[C@@H]4O[C@H](CO[C@@H]5O[C@@H](C)[C@H](O)[C@@H](O)[C@H]5O)[C@@H](O)[C@H](O)[C@H]4O)cc3O2)cc1O [Hesperidin] the “enhancement of alkaline phosphatase activity, daily course (FIG. 1)” value ([1]; 5, 10 or 20 μM, culture day three, six or nine, relative to ethanol control) was “remarkable enhancement of alkaline phosphatase activity at third day”, the “Relative Alkaline Phosphatase Activity (%)” value [1, 6] was 107% and the “alkaline phosphatase activity in vitro” value [1] was “did not demonstrate”. For the same compound, the “Relative Calcium Deposition Amount (%)” value [2] was 118%, the “calcium deposition in vitro” value [2] was “did not demonstrate” and the “calcium deposition in femur and tibia” value (Rat Femur and Tibia) was “increase of calcium deposition content”.

For CC(C)Oc1ccc2c(=O)c(-c3ccccc3)coc2c1 [Ipriflavone, reference compound], the “Relative Alkaline Phosphatase Activity (%)” value [1, 6] was 114%, the “Relative Calcium Deposition Amount (%)” value [2] was 263% and the “Calcium Content Per One Dried Bone” value (Rat Femur and Tibia; Femur) was 120.0 mg. The “Dried Bone Mass” value (Rat Femur and Tibia; Femur) was 0.428 g, the “Calcium Content Per One Dried Bone” value (Rat Femur and Tibia; Tibia) was 106.0 mg and the “Dried Bone Mass” value (Rat Femur and Tibia; Tibia) was 0.338 g.

CC1CCC(C(C)C)C(O)C1 (stereo not drawn) [Menthol, menthol] showed an activity at 20 µM [1, 5] of 95%.

Work on O=C1C[C@@H](c2ccc(O)cc2)Oc2cc(O)cc(O)c21 [Naringenin] yielded an activity at 20 µM [1, 4] of 110% and an activity at 20 µM [2] of 271%.

O=c1c(O)c(-c2ccc(O)c(O)c2)oc2cc(O)cc(O)c12 [Quercetin] was tested, and the activity at 20 µM [1, 4] was 120%, the activity at 20 µM [2] was 118% and the “Calcium Content Per One Dried Bone” value (Rat Femur and Tibia; Femur) was 120.3 mg. The “Dried Bone Mass” value (Rat Femur and Tibia; Femur) was 0.456 g, the “Calcium Content Per One Dried Bone” value (Rat Femur and Tibia; Tibia) was 108.7 mg and the “Dried Bone Mass” value (Rat Femur and Tibia; Tibia) was 0.352 g.

C[C@@H]1O[C@@H](OC[C@H]2O[C@@H](Oc3c(-c4ccc(O)c(O)c4)oc4cc(O)cc(O)c4c3=O)[C@H](O)[C@@H](O)[C@@H]2O)[C@H](O)[C@H](O)[C@H]1O [Rutin] was tested, and the “Relative Alkaline Phosphatase Activity (%)” value [1, 6] was 109% and the “Relative Calcium Deposition Amount (%)” value [2] was 74%.

In the case of O=C1/C(=C/c2ccc(O)c(O)c2)Oc2cc(O)ccc21 [Sulfuretin], the “Relative Alkaline Phosphatase Activity (%)” value [1, 6] is reported as 126% and the “Relative Calcium Deposition Amount (%)” value [2] is reported as 157%.

O=C1c2c(O)cc(O)cc2O[C@H](c2ccc(O)c(O)c2)[C@H]1O [Taxifolin] gave an activity at 20 µM [1, 4] of 98% and an activity at 20 µM [2] of 234%.

COc1cc(C=O)ccc1O [Vanillin, vanillin] showed an activity at 20 µM [1, 5] of 89%.

Compound CC1=C(/C=C/C(C)=C/C=C/C(C)=C/C=C/C=C(C)/C=C/C=C(C)/C=C/C2=C(C)CCCC2(C)C)C(C)(C)CCC1 [β-Carotene, β-carotene] has an activity at 20 µM [1, 5] of 81%.

With Phloretin the “Relative Alkaline Phosphatase Activity (%)” value [1, 6] was 109% and the “Relative Calcium Deposition Amount (%)” value [2] was 238%.

tocopherol was tested, and the “Relative Alkaline Phosphatase Activity (%)” value [1, 3] was 100%.

In the case of α-glycosyl hesperidin, the “alkaline phosphatase activity in vitro” value [1] is reported as “did not demonstrate”, the “calcium deposition in vitro” value [2] is reported as “did not demonstrate” and the “Calcium Content Per One Dried Bone” value (Rat Femur and Tibia; Femur) is reported as 126.9 mg. The “Dried Bone Mass” value (Rat Femur and Tibia; Femur) was 0.454 g, the “Calcium Content Per One Dried Bone” value (Rat Femur and Tibia; Tibia) was 109.5 mg and the “Dried Bone Mass” value (Rat Femur and Tibia; Tibia) was 0.349 g. The “calcium deposition in femur and tibia” value (Rat Femur and Tibia) was “increase of calcium deposition content”.

With α-glycosyl rutin the “alkaline phosphatase activity in vitro” value [1] was “did not demonstrate”, the “calcium deposition in vitro” value [2] was “did not demonstrate” and the “Calcium Content Per One Dried Bone” value (Rat Femur and Tibia; Femur) was 119.9 mg. For the same compound, the “Dried Bone Mass” value (Rat Femur and Tibia; Femur) was 0.439 g, the “Calcium Content Per One Dried Bone” value (Rat Femur and Tibia; Tibia) was 107.7 mg and the “Dried Bone Mass” value (Rat Femur and Tibia; Tibia) was 0.343 g. For the same compound, the “calcium deposition in femur and tibia” value (Rat Femur and Tibia) was “increase of calcium deposition content”.
